# From patent US20050004211A1, “Pharmaceutical compositions comprising aryl-substituted acyclic enediyne compounds” (KAOHSIUNG MEDICAL UNIVERSITY, priority 2003, published 2005)
# Like-named read-outs stand apart in the source and are kept apart here.
# Key:
# Breast cancer cell MCF-7 = experiment: Preliminary cytotoxicity test; type: cell-based, human
# CNS cancer cell SF-268 = experiment: Preliminary cytotoxicity test; type: cell-based, human
# [1] = test system: Non-small cell Lung cancer cell NCI-H460; experiment: Preliminary cytotoxicity test; type: cell-based, human
# [2] = test system: NCI (NCI-H661): human lung large cell carcinoma; experiment: In vitro anticancer assay (cytotoxicity), human solid tumor cells; conditions: for IC50 Values of Cytotoxicities, NCI: NCI (NCI-H661); for IC50: Homo sapiens, NCI-H661, read-out: IC50 Values of Cytotoxicities, NCI
# Hepa: human hepatoma [3] = experiment: as above; conditions: for IC50: Homo sapiens, HepA, read-out: IC50 Values of Cytotoxicities, Hepa
# [4] = test system: Hela: human cervix epitheloid carcinoma; experiment: as above; conditions: for IC50: Homo sapiens, HeLa, read-out: IC50 Values of Cytotoxicities, Hela
# [5] = test system: DLD (DLD-1): human colon adenocarcinoma; experiment: as above; conditions: for IC50: Homo sapiens, DLD-1, read-out: IC50 Values of Cytotoxicities, DLD
# KB = conditions: read-out: Cytotoxicities (IC50), KB; KB cell; earlier research work; cited from earlier work
# Hep2,2,15 = conditions: read-out: Cytotoxicities (IC50), Hep2,2,15, earlier research work; cited from earlier work
# [6] = test system: human hepatoma Hep G2 cells; experiment: Cell cycle analysis by flow cytometry; type: cell-based; conditions: 72 hrs
# Procedure: Samples of 1×10^6 Hep G2 cells were plated on a 6 cm tissue culture dish, and the cells were allowed to recover 24 hrs before any treatment. Thereafter, DMSO or a test compound (1 μM, 10 μM or 50 μM) was added to the cells for 1 hr in complete medium at 37° C., washed twice with PBS, and incubated in fresh media for the incubation time. Cell were harvested with trypsin and washed twice with PBS. Samples were fixed in 70% ethanol and stored at 4° C. for at least 24 hrs and then washed once with Mcllvaine's buffer (0.2M Na2HPO4, 0.1M citric acid, pH=7.5) and once again with PBS. Samples were stained with PI (propidium iodide) staining solution (PBS containing 100 μg/ml, RNase A and 10 μg/ml PI [Sigma]), processed on a Coulter Elite flow cytometry, and the data analyzed with the Mutiplus AV program.
# To obtain more information about the effect(s) of the acyclic enediynes according to this invention upon the growth of cells, human hepatoma Hep G2 cells or K-562 cells were used, and the growth characteristic of said cells were measured subsequent to the treatment with a test compound.
# 1 μM or 10 μM of compound 5 was added to the cells, and after exposure to the compounds for 72 hrs, attached cells were analyzed by flow cytometry. The majority (71.5%) of control cells exposed to DMSO were in the G0-G1 phase of cell cycle, and only a small amount of cells was detected in either the S phase (22.7%) or G2/M (5.8%) phase. Moreover, after a 72 hrs treatment with compound 5 (1 and 10 μM), cells progressed to the S phase and the majority of cell population was almost arrested at the S phase. Consistent with this cell cycle arrest, only 36.6% (1 μM) and 46.9% (10 μM) of the cells were found at the G0-G1 phase, 63.2% (1 μM) and 53.0% (10 μM) in S phase, and 0.2% (1 μM) and 0.1% (10 μM) in G2/M phase. However, the significant blockage of the Hep G2 cell cycle in S phase was observed and was induced by both concentrations (1 μM and 10 μM) of compound 5.
# [7] = test system: Hela: human cervix epitheloid carcinoma
# Hepa: human hepatoma [8] = test system: Hepa: human hepatoma
# [9] = test system: KB: human oral epidermoid carcinoma; experiment: In vitro anticancer assay (cytotoxicity), human solid tumor cells
# topoisomerase I = target: T1, topoisomerase I (Homo sapiens, UniProt P11387); experiment: Topoisomerase I course assay, cleavage of supercoiled pGEM9zf(−) DNA, gel electrophoresis; type: biochemical; conditions: 87 μM compound
# T1 sequence (P11387 1-765): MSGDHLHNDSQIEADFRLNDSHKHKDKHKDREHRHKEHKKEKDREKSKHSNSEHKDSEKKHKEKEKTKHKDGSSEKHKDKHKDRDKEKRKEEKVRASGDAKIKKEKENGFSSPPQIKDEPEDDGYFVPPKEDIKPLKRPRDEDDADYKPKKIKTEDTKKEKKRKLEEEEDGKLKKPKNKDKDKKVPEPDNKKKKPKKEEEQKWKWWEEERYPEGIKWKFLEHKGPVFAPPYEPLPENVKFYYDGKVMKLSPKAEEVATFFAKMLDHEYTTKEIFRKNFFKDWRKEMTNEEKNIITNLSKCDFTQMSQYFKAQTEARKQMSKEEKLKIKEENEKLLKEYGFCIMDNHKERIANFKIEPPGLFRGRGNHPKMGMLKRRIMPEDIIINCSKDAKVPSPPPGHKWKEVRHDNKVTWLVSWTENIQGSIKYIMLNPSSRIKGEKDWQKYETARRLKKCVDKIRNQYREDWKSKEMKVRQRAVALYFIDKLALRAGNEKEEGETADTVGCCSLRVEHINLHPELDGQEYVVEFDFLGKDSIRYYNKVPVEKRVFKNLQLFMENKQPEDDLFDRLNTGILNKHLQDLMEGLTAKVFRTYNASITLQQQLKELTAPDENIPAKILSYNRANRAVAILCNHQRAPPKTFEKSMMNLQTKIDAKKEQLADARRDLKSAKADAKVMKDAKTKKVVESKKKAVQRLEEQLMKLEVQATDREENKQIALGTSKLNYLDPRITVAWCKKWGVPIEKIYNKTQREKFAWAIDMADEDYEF
compound,measurement,setting,value
"2-(6-(2-xylenyl)-3-hexen-1,5-diyne)benzonitrile [Compound 24]","Growth percentage, Breast cancer cell MCF-7",Breast cancer cell MCF-7,101%
same,"Growth percentage, CNS cancer cell SF-268",CNS cancer cell SF-268,111%
same,"Growth percentage, Non-small cell Lung cancer cell NCI-H460",[1],129%
"N#Cc1ccccc1C#C/C=C\C#CCOC1CCCCO1 (stereo not shown) [Compound 1, 2-(7-(Tetrahydropyranyloxy)-3(Z)-hepten-1,5-diynyl)-benzonitrile]","IC50 Values of Cytotoxicities, NCI",[2],—* (“—” means IC50 >20 μg/ml)
same,"IC50 Values of Cytotoxicities, Hepa",Hepa: human hepatoma [3],14.26 µg/mL
same,"IC50 Values of Cytotoxicities, Hela",[4],9.97 µg/mL
same,"IC50 Values of Cytotoxicities, DLD",[5],8.61 µg/mL
same,IC50,KB,0.1 µM
same,IC50,"Hep2,2,15",> 10 µM
"N#Cc1ccccc1C#C/C=C\C#CCCCOC1CCCCO1 (stereo not shown) [Compound 2, 2-(9-(Tetrahydropyranyloxy)-3(Z)-nonen-1,5-diynyl)-benzonitrile]","IC50 Values of Cytotoxicities, NCI",[2],— (“—” means IC50 >20 μg/ml)
same,"IC50 Values of Cytotoxicities, Hepa",Hepa: human hepatoma [3],14.66 µg/mL
same,"IC50 Values of Cytotoxicities, Hela",[4],10.62 µg/mL
same,"IC50 Values of Cytotoxicities, DLD",[5],— (“—” means IC50 >20 μg/ml)
same,IC50,KB,< 0.01 µM
same,IC50,"Hep2,2,15",> 10 µM
"CCCCC#C/C=C\C#Cc1ccccc1C#N [Compound 3, 2-(3(Z)-Decen-1,5-diynyl)benzonitrile]",IC50,[2],> 20 µg/mL
same,IC50,Hepa: human hepatoma [3],12.5 µg/mL
same,IC50,[4],> 20 µg/mL
same,IC50,[5],5.03 µg/mL
same,IC50,KB,< 0.01 µM
same,IC50,"Hep2,2,15",17 µM
"CCCCCC#C/C=C\C#Cc1ccccc1C#N [Compound 4, 2-(3(Z)-Undecen-1,5-diynyl)benzonitrile]",IC50,[2],> 20 µg/mL
same,IC50,Hepa: human hepatoma [3],7.28 µg/mL
same,IC50,[4],6.38 µg/mL
same,IC50,[5],> 20 µg/mL
same,IC50,KB,< 0.01 µM
same,IC50,"Hep2,2,15",> 10 µM
"N#Cc1ccccc1C#C/C=C\C#Cc1ccccc1 [Compound 5, 2-(6-phenyl-3(Z)-hexen-1,5-diynyl)benzonitrile]",IC50,[2],7.01 µg/mL
same,IC50,Hepa: human hepatoma [3],1.09 µg/mL
same,IC50,[4],> 20 µg/mL
same,IC50,[5],> 20 µg/mL
same,cells at the G0-G1 phase,[6]; 1 μM,36.6%
same,cells in G2/M phase,[6]; 1 μM,0.2%
same,cells in S phase,[6]; 1 μM,63.2%
same,cells at the G0-G1 phase,[6]; 10 μM,46.9%
same,cells in G2/M phase,[6]; 10 μM,0.1%
same,cells in S phase,[6]; 10 μM,53.0%
CCCCC#C/C=C\C#Cc1ccc(Cl)cc1 [Compound 13],"IC50 Values of Cytotoxicities, Hela",[7],9.83 µg/mL
same,"IC50 Values of Cytotoxicities, NCI",[2],8.00 µg/mL
same,"IC50 Values of Cytotoxicities, Hepa",Hepa: human hepatoma [8],— (key: “—” means IC50 >20 μg/ml)
same,"IC50 Values of Cytotoxicities, KB",[9],— (“—” means IC50 >20 μg/ml)
"CCCCCCC#C/C=C\C#Cc1ccc(C(C)=O)cc1 [Compound 23, 4-(3-(Z)-Dodecen-1,5-diynyl)acetophenone]","IC50 Values of Cytotoxicities, Hela",[7],— (key: “—” means IC50 >20 μg/ml)
same,"IC50 Values of Cytotoxicities, NCI",[2],13.13 µg/mL
same,"IC50 Values of Cytotoxicities, Hepa",Hepa: human hepatoma [8],— (key: “—” means IC50 >20 μg/ml)
same,"IC50 Values of Cytotoxicities, DLD",[5],— (“—” means IC50 >20 μg/ml)
same,inhibition of topo I,topoisomerase I,displayed inhibitory activities of topo I
"Cc1ccc(C#CC=CC#Cc2ccccc2C#N)cc1 [Compound 28, 2-(6-(4-tolyl)-3-hexen-1,5-diynyl)benzonitrile]","Growth percentage, Breast cancer cell MCF-7",Breast cancer cell MCF-7,80%
same,"Growth percentage, CNS cancer cell SF-268",CNS cancer cell SF-268,105%
same,"Growth percentage, Non-small cell Lung cancer cell NCI-H460",[1],96%
"N#Cc1ccccc1C#CC=CC#Cc1cccs1 [Compound 29, 2-(6-(2-thienyl)-3-hexen-1,5-diynyl)benzonitrile]","Growth percentage, Breast cancer cell MCF-7",Breast cancer cell MCF-7,49%
same,"Growth percentage, CNS cancer cell SF-268",CNS cancer cell SF-268,96%
same,"Growth percentage, Non-small cell Lung cancer cell NCI-H460",[1],34%
"N#Cc1ccccc1C#CC=CC#Cc1ccc(N)cc1 [Compound 33, 2-[6-(p-anilinyl)-3-hexen-1,5-diynyl]benzonitrile]","Growth percentage, Breast cancer cell MCF-7",Breast cancer cell MCF-7,100%
same,"Growth percentage, CNS cancer cell SF-268",CNS cancer cell SF-268,92%
same,"Growth percentage, Non-small cell Lung cancer cell NCI-H460",[1],94%
